What was measured:
[1] = tested on: Blast T cell; assay: Cell proliferation test of IL-2 stimulated Blast T cell; format: cell-based; details: Homo sapiens; IL-2 stimulated Blast T cell proliferation, 72 hours
[2] = tested on: male ICR mice; assay: Carrageenan-induced paw swelling in mice; format: in vivo; details: 10 mg/kg intragastric; for Paw swelling_0.5 h (%): 0.5 h; for Paw swelling rate_1 h (%): 1 h; for Paw swelling rate_2 h (%): 2 h
Experimental: The inhibiting effects of compounds H01, H07, H11, H12, H14, H15, H22, H25, H29, H30, H33, H39 and H44 on paw swelling in mice were determined after intragastric administration by using male ICR mice (ShanghaiSippr-BK laboratory animal Co. Ltd.), aged 8 weeks and weighing 22-24 g as test animals. The anti-inflammatory pharmacodynamics characteristic of the compounds of the invention was discussed.
A certain amount of compounds were taken and dissolved in 4% Tween 80/0.5% hydroxy propyl methyl cellulose solution. A volume of intragastric administration in mice was 10 ml/kg.
Mice were given 10 mg/kg compounds H01, H07, H11, H12, H14, H15, H22, H25, H29, H30, H33, H39, and H44 and the positive drug indomethacin (Diamond Reagent Co., Ltd., China) by intragastric administration at the dosages shown in the table below and 20 μL 1% (W/V) carrageenan was injected subcutaneously into the plantar 0.5 h later. A paw volume was measured with a paw swelling meter before and at different time points after modeling (0.5 h, 1 h and 2 h). According to the formula: paw swelling rate=(paw volume after administration−basic paw volume)/basic paw volume×100, the inhibiting effect of the compounds on paw volume was calculated. The basic paw volume was a paw volume before administration.

[3] = tested on: Sprague-Dawley (SD) mice; assay: Concanavalin-induced paw swelling in mice; format: in vivo; details: 10 mg/kg intragastric; for Paw swelling rate_1 h (%): 1 h; for Paw swelling rate_2 h (%): 2 h; for Paw swelling rate_4 h (%): 4 h; for Paw swelling rate_6 h (%): 6 h
Experimental: The inhibiting effects of compounds H13, H14, H09, H11 and compounds of Example 12 on paw swelling in […] were determined after intragastric administration by using Sprague-Dawley (SD) […] (ShanghaiSippr-BK laboratory animal Co. Ltd.), aged 6-7 weeks and weighing 160-180 g as test animals. The anti-inflammatory pharmacodynamics characteristic of the compounds of the invention was discussed.
A certain amount of compounds were taken and dissolved in 4% Tween 80/0.5% hydroxy propyl methyl cellulose solution.
Mice were given compounds H01, H07, H11, H12, H14, H15, H22, H25, H29, H30, H33, H39, and H44 and the positive drug indomethacin (Diamond Reagent Co., Ltd., China) by intragastric administration at the dosages shown in the table below and 0.1 ml 0.03% (W/V) concanavalin was injected subcutaneously into the plantar 0.5 h later. A paw volume was measured with a paw swelling meter before modeling and 1 h, 2 h, 4 h and 6 h after modeling. According to the formula: paw swelling rate=(paw volume after administration−basic paw volume)/basic paw volume×100, the inhibiting effect of the compounds on paw volume was calculated. The basic paw volume was a paw volume before administration.

[4] = Pharmacokinetic test after intragastric administration; format: in vivo; details: Sprague-Dawley, mouse, plasma, po, SD mice, 5 mg/kg intragastric; for AUC(0-t): read-out: Area under the curve (AUC0-24, ng/ml · h); for Cmax: read-out: Plasma concentration (Cmax, ng/ml); for half-life: read-out: half life (T1/2, h) (converted)
Experimental: Drug concentrations of compounds H01, H07, H11, H12, H14, H15, H22, H25, H29, H30, H33, H39 and H44 intragastrically administrated in plasma by using LC/MS/MS method at various time points were determined by using Sprague-Dawley (SD) […], aged 7-8 weeks and weighing […] as test animals. Pharmacokinetic behavior of the compounds of the invention in […] was studied and its pharmacokinetic characteristics were evaluated.
A certain amount of compounds was taken and dissolved in 50% PEG400/water to prepare a uniform solution.
Mice were administered intragastrically with the above compounds with a dosage of 5 mg/kg. Blood (0.2 ml) was taken from orbits before administration and 0.083 h, 0.25 h, 0.5 h, 1.0 h, 2.0 h, 4.0 h, 6.0 h, 8.0 h, 12.0 h and 24.0 h after administration. The blood was placed in anticoagulant tubes containing dipotassium ethylene glycol diethyl ether diamine tetraacetic acid, centrifugated at 6000 rpm at 4° C. for 10 minutes to separate plasma and saved at −80° C.
50 μL plasma at various time was taken and 150 μL acetonitrile solution containing internal standard tolbutamide (Sigma, USA) was added, mixed and stirred for 5 minutes. After centrifugation for 5 minutes at 12,000 rpm, 100 μL supernatant was taken, mixed with 200 μL water, following by sample injection and analysis.
Liquid chromatogram system was LC-20AD UFLC High Performance Liquid Chromatography system. Mass spectrum system was AB Sciex API4000 triple quadrupole mass spectrometer equipped with Electron Spray Ionization (ESI) (Applied Biosystems, Canada). A software for controlling liquid chromatography-mass spectrometry and quantitative analysis was Anna Rust 1.6 (Applied Biosystems, Canada). Pharmacokinetic parameters were analyzed by WinNonlin (version 5.2, Pharsight, Mountain View, […]) non-compartment model.
The test compound was dissolved in dimethyl sulfoxide to prepare a stock solution with a concentration of 1 mg/mL. The solution was diluted with 50% acetonitrile to obtain a series of standard working solutions with concentrations of 10 μg/mL, 3 μg/mL, 1 μg/mL, 0.3 μg/mL, 0.1 μg/mL, 0.03 μg/mL and 0.01 μg/mL, and a series of standard quality control solutions with concentrations of 8 μg/mL, 0.5 μg/mL, 0.03 μg/mL. 5 μL standard solution was mixed with 45 μL blank plasma substrate uniformly to obtain standard solutions of each concentration of a standard curve (1000 ng/mL, 500 ng/mL, 200 ng/mL, 100 ng/mL, 10 ng/mL, 5 ng/mL, 2 and 1 ng/mL) and quality control solutions (plasma samples: 800 ng/mL, 50 and 3 ng/mL).
Internal standard tolbutamide solid powder was dissolved in dimethyl sulfoxide to prepare a 1 mg/mL stock solution. The stock solution was diluted with 100% acetonitrile to obtain 200 ng/mL solution as a protein precipitation solution.

Row | SMILES | IC50 [1] | Paw swelling_0.5 h (%) [2] | Paw swelling rate_1 h (%) [2] | Paw swelling rate_2 h (%) [2] | Paw swelling rate_1 h (%) [3] | Paw swelling rate_2 h (%) [3] | Paw swelling rate_4 h (%) [3] | Paw swelling rate_6 h (%) [3] | AUC(0-t) [4] | Cmax [4] | half-life [4]
1 | COc1nsc(NC(=O)N2C[C@H]3C[C@H](N(C)c4c(C#N)cnc5[nH]ccc45)C[C@H]3C2)n1 [Compound H07, (3aR,5s,6aS)-4-({2-[(3-methoxy-1,2,4-thiadiazole-5-yl)carbamoyl]-hexahydrocyclopenta[c]pyrrole-5-yl}-methyl-amino)-1H-pyrrolo[2,3-b]pyridin-5-carbonitrile] | 0.024 µM | 37.02 ± 1.35% | 42.33 ± 2.20% | 41.24 ± 3.36% | 25.20 ± 2.10% | 32.10 ± 1.70% | 22.30 ± 4.20% | 21.30 ± 4.20% | 1920 ± 20 ng·h/mL | 578 ± 43 ng/mL | 4.62 ± 0.87 h
2 | C[C@@H]1CCN(C(=O)CC#N)C[C@@H]1N(C)c1c(C#N)cnc2[nH]ccc12 [Compound H11, 4-{[(3R,4R)-1-(2-cyanoacetyl)-4-methylpiperidin-3-yl]-methyl-amino}-1H-pyrrolo[2,3-b]pyridin-5-carbonitrile] | 0.013 µM | 30.22 ± 2.62% | 39.76 ± 1.20% | 40.25 ± 5.47% | 23.50 ± 2.40% | 25.80 ± 3.30% | 31.00 ± 2.10% | 32.00 ± 2.10% | 2620 ± 10 ng·h/mL | 428 ± 32 ng/mL | 8.53 ± 0.67 h
3 | N#Cc1cnc2[nH]ccc2c1N[C@H]1C[C@@H](NS(=O)(=O)CCC(F)(F)F)C1 [Compound H12, (cis)-4-{[3-(3,3,3-trifluoropropanesulfonamido)-cyclobutyl-1-yl]-amino}-1H-pyrrolo[2,3-b]pyridin-5-carbonitrile] | 0.011 µM | 38.45 ± 4.37% | 45.64 ± 3.58% | 41.66 ± 5.38% | 28.90 ± 2.00% | 23.10 ± 3.00% | 24.00 ± 2.90% | 24.00 ± 3.00% | 1020 ± 266 ng·h/mL | 644 ± 82 ng/mL | 4.23 ± 0.47 h
4 | CCCS(=O)(=O)N[C@H]1C[C@@H](N(C)c2c(C#N)cnc3[nH]ccc23)C1 [Compound H14, (cis)-4-{[3-(propanesulfonamido)-cyclobutyl-1-yl]-methyl-amino}-1H-pyrrolo[2,3-b]pyridin-5-carbonitrile] | 0.017 µM | 39.03 ± 4.53% | 40.65 ± 2.51% | 39.00 ± 4.25% | 32.10 ± 5.20% | 25.90 ± 5.00% | 25.50 ± 4.00% | 25.10 ± 4.20% | 915 ± 240 ng·h/mL | 438 ± 24 ng/mL | 2.11 ± 0.16 h
5 | CN(c1c(C#N)cnc2[nH]ccc12)[C@H]1C[C@@H](NS(=O)(=O)CCC(F)(F)F)C1 [Compound H15, (cis)-4-{[3-(3,3,3-trifluoropropanesulfonamide)-cyclobutyl-1-yl]-methyl-amino}-1H-pyrrolo[2,3-b]pyridin-5-carbonitrile] | 0.014 µM | 36.02 ± 1.37% | 43.33 ± 2.30% | 43.24 ± 4.36% | 24.50 ± 2.50% | 25.90 ± 3.40% | 32.00 ± 2.30% | 31.00 ± 2.30% | 1520 ± 241 ng·h/mL | 518 ± 24 ng/mL | 5.11 ± 0.16 h
6 | CN(c1c(C#N)cnc2[nH]ccc12)[C@H]1C[C@@H]2CN(C(=O)NCC(F)(F)F)C[C@@H]2C1 [Compound H22, (3aR,5s,6aS)-4-({2-[(2,2,2-trifluoroethyl)-carbamoyl]-hexahydrocyclopenta[c]pyrrole-5-yl}-methyl-amino)-1H-pyrrolo[2,3-b]pyridin-5-carbonitrile] | 0.019 µM | 31.22 ± 2.62% | 41.76 ± 1.20% | 42.25 ± 5.67% | 29.80 ± 2.00% | 29.10 ± 3.00% | 31.00 ± 2.90% | 31.00 ± 2.90% | 757 ± 169 ng·h/mL | 213 ± 22 ng/mL | 3.11 ± 0.64 h
7 | CN(c1c(C#N)cnc2[nH]ccc12)[C@H]1C[C@@H]2CN(C(=O)Nc3ccc(Cl)c(C(F)(F)F)c3)C[C@@H]2C1 [Compound H25, (3aR,5s,6aS)-N-(4-chloro-3-(trifluoromethyl)phenyl)-5-((5-cyano-1H-pyrrolo[2,3-b]pyridin-4-yl)(methyl)amino)hexahydrocyclopentadiene[c]pyrrole-2(1H)-carboxamide] | 0.02 µM | 37.45 ± 4.37% | 44.64 ± 3.68% | 44.66 ± 5.58% | 32.10 ± 5.20% | 26.90 ± 5.00% | 24.50 ± 4.00% | 24.50 ± 4.00% | 1270 ± 231 ng·h/mL | 501 ± 17 ng/mL | 4.67 ± 0.23 h

From patent US12398141B2 (SHANGHAI SYNERGY PHARMACEUTICAL SCIENCES CO., LTD, priority 2019, dated 2025)
